Columns and labels:
[1] = target: Geranylgeranyl transferase type-1 subunit beta/Protein farnesyltransferase/geranylgeranyltransferase type-1 subunit alpha (Bos taurus, UniProt P29702+Q5EAD5); test: GGTase-I Activity Assay; settings: pH 7.5; 37 °C
Experimental: The in vitro activity of compounds inhibiting GGTase-1 was determined by measuring the transfer of [3H]-geranylgeranylpyrophosphate to substrate Ha-Ras-CVLL. The incorporated radioactivity was quantified by scintillation counting.

[2] = target: Protein farnesyltransferase subunit beta/geranylgeranyltransferase type-1 subunit alpha (Bos taurus, UniProt P29702+P49355); test: FTase Activity Assay; settings: pH 7.5; 37 °C
Experimental: The in vitro activity of compounds inhibiting FTase was determined by measuring the transfer of [3H]-FPP to substrate Ha-Ras-CVLS. The incorporated radioactivity was quantified by scintillation counting.

CN(Cc1ccc(C#N)cc1)[C@H](Cc1cncn1C)C(=O)N1CCC(C#N)=C(c2cccc3ccccc23)C1 [1-[(2R)-2-{[(4-cyanophenyl)methyl](methyl)amino}-3-(1-methyl-1H-imidazol-5-yl)propanoyl]-5-(naphthalen-1-yl)-1,2,3,6-tetrahydropyridine-4-carbonitrile]
IC50 [1]: 1600 nM | IC50 [2]: 0.92 nM
